Measurements as given in ChEMBL document CHEMBL4732086, “Targeting nuclear protein TDP-43 by cell division cycle kinase 7 inhibitors: A new therapeutic approach for amyotrophic lateral sclerosis” (Eur J Med Chem, 2021).
Active and inactive are the calls of the source.

How the values were obtained:
[1] = target: Tyrosine-protein kinase Fyn (Homo sapiens) (UniProt P06241); assay: Inhibition of recombinant human His-tagged Fyn expressed in baculovirus expression system using Tyr 02 peptide as substrate at 10 uM incubated for 60 mins in presence of ATP by Z'-LYTE assay
Tyrosine-protein kinase Fyn (Homo sapiens), sequence (P06241 2-537 limits assumed): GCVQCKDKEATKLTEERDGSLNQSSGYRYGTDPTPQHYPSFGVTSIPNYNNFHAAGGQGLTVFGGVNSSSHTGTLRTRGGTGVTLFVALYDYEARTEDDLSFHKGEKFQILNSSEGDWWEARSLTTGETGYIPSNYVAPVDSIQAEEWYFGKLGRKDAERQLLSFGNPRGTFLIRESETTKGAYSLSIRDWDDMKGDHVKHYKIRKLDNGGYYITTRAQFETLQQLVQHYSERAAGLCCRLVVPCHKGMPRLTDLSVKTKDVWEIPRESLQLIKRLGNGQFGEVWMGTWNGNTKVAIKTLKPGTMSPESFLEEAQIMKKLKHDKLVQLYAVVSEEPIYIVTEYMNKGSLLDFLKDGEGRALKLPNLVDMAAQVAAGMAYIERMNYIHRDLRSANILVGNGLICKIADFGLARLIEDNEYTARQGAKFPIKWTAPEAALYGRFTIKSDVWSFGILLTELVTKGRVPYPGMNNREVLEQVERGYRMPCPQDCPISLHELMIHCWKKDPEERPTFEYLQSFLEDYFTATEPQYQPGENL

[2] = target: Serine/threonine-protein kinase MARK1 (Homo sapiens) (UniProt Q9P0L2); assay: Inhibition of recombinant human full length GST-tagged MARK1 expressed in baculovirus expression system using serine/threonine-21 peptide as substrate at 10 uM by Z'-LYTE assay; conditions: time 60.0 min
Serine/threonine-protein kinase MARK1 (Homo sapiens), sequence (Q9P0L2 whole entry, looked up): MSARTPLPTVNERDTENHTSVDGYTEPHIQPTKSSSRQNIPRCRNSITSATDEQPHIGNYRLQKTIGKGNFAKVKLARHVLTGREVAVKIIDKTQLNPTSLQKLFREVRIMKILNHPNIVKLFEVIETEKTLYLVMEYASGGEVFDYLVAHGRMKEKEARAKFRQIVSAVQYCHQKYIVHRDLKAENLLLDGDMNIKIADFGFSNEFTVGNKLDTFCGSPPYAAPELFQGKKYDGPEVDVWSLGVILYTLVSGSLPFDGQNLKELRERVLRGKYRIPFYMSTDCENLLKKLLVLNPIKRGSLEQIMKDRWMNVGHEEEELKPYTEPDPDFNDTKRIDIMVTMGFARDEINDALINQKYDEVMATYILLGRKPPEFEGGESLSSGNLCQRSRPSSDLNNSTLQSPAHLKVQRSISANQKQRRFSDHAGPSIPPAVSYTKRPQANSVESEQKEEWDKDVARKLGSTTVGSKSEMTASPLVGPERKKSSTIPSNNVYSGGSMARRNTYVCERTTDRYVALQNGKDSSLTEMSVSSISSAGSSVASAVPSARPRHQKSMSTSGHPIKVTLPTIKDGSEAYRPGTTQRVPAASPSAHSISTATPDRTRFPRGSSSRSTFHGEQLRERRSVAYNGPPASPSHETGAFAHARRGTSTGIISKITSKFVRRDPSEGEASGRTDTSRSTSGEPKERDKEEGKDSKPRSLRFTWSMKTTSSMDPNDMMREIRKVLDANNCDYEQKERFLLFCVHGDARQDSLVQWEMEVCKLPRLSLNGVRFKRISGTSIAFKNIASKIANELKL

[3] = target: Serine/threonine-protein kinase MARK2 (Homo sapiens) (UniProt Q7KZI7); assay: Inhibition of recombinant human full length GST-tagged MARK2 expressed in baculovirus expression system using serine/threonine-21 peptide as substrate at 10 uM by Z'-LYTE assay; conditions: time 60.0 min
Serine/threonine-protein kinase MARK2 (Homo sapiens), sequence (Q7KZI7 whole entry): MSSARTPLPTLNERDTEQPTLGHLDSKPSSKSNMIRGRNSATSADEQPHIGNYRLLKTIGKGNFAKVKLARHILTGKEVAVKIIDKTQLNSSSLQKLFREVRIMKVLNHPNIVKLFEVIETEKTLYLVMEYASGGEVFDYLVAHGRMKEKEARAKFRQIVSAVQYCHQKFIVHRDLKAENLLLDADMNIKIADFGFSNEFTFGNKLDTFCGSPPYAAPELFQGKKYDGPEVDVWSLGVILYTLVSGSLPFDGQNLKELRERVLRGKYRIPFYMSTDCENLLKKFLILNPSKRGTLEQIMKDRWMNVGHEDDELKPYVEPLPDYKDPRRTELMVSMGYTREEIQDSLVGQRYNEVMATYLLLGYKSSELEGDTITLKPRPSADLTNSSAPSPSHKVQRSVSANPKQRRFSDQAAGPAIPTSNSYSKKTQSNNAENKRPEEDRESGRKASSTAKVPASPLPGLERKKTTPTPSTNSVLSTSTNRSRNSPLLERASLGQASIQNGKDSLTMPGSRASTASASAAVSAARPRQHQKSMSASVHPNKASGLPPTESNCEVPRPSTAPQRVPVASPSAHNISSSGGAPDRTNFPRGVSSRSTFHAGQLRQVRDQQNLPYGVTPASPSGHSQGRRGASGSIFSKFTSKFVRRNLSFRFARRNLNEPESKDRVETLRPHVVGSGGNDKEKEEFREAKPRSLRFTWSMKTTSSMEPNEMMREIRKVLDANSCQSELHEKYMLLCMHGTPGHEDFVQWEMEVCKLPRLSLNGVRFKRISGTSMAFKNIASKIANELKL

[4] = target: Calcium/calmodulin-dependent protein kinase type II subunit alpha (Homo sapiens) (UniProt Q9UQM7); assay: Inhibition of recombinant full length human His-tagged CAMK2alpha expressed in baculovirus expression system using serine/threonine-4 peptide as substrate at 10 uM incubated for 60 mins in presence of ATP by Z'-LYTE assay
Calcium/calmodulin-dependent protein kinase type II subunit alpha (Homo sapiens), sequence (Q9UQM7 whole entry): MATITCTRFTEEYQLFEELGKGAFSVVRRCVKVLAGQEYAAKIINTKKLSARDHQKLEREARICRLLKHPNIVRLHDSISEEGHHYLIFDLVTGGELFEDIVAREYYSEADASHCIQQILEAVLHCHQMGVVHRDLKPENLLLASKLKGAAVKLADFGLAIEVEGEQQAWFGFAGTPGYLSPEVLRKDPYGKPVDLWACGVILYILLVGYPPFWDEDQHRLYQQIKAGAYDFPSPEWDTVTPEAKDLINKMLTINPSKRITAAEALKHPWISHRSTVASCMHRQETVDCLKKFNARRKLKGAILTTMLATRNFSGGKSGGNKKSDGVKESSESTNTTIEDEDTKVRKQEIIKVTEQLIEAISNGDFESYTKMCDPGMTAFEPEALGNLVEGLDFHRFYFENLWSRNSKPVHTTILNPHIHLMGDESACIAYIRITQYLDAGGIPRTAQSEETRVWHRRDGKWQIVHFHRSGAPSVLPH

[5] = target: Cyclin-dependent kinase 5/CDK5 activator 1 (Homo sapiens) (UniProt Q00535+Q15078); assay: Inhibition of recombinant full length human GST/His-tagged CDK5/p35 using serine/threonine-12 peptide as substrate at 10 uM incubated for 60 mins in presence of ATP by Z'-LYTE assay; assay type: protein-complex assay
Cyclin-dependent kinase 5/CDK5 activator 1 (Homo sapiens), sequence (Q00535 whole entry): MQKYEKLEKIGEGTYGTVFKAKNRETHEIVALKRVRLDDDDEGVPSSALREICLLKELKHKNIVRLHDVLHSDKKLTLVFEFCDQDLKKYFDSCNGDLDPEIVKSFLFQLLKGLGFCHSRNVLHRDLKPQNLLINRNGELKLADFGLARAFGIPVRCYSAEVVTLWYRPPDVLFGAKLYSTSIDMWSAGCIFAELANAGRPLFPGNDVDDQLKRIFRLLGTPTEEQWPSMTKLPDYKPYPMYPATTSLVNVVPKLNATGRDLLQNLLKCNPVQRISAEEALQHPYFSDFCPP
Cyclin-dependent kinase 5/CDK5 activator 1 (Homo sapiens), sequence (Q15078 99-307 partner limits assumed): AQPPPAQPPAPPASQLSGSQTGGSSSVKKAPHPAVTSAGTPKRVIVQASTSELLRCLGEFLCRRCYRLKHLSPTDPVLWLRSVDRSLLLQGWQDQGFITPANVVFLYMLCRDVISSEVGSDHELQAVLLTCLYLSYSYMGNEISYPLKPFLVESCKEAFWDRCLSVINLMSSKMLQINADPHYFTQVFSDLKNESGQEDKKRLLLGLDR

[6] = target: T1, Aurora kinase A (Homo sapiens) (UniProt O14965); assay: Inhibition of recombinant human full length AURKA expressed in baculovirus expression system using Ser/Thr-01 peptide as substrate at 10 uM after 1 hr in presence of ATP by Z'LYTE assay
T1 sequence (whole entry): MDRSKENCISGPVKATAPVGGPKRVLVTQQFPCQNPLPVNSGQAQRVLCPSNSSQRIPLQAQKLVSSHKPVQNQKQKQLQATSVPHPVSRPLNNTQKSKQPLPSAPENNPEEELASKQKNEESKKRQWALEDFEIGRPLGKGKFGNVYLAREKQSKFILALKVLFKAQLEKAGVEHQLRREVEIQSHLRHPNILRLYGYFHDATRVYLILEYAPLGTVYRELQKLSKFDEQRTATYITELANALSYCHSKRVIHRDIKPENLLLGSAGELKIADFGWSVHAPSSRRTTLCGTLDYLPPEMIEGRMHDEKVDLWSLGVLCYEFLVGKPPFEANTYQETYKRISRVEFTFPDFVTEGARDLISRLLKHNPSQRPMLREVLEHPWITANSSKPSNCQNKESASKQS

[7] = target: T2, Tyrosine-protein kinase JAK3 (Homo sapiens) (UniProt P52333); assay: Inhibition of recombinant human GST-tagged JAK3 expressed in baculovirus expression system using Tyr-06 peptide as substrate at 10 uM incubated for 60 mins in presence of ATP by Z'-LYTE assay
T2 sequence (whole entry): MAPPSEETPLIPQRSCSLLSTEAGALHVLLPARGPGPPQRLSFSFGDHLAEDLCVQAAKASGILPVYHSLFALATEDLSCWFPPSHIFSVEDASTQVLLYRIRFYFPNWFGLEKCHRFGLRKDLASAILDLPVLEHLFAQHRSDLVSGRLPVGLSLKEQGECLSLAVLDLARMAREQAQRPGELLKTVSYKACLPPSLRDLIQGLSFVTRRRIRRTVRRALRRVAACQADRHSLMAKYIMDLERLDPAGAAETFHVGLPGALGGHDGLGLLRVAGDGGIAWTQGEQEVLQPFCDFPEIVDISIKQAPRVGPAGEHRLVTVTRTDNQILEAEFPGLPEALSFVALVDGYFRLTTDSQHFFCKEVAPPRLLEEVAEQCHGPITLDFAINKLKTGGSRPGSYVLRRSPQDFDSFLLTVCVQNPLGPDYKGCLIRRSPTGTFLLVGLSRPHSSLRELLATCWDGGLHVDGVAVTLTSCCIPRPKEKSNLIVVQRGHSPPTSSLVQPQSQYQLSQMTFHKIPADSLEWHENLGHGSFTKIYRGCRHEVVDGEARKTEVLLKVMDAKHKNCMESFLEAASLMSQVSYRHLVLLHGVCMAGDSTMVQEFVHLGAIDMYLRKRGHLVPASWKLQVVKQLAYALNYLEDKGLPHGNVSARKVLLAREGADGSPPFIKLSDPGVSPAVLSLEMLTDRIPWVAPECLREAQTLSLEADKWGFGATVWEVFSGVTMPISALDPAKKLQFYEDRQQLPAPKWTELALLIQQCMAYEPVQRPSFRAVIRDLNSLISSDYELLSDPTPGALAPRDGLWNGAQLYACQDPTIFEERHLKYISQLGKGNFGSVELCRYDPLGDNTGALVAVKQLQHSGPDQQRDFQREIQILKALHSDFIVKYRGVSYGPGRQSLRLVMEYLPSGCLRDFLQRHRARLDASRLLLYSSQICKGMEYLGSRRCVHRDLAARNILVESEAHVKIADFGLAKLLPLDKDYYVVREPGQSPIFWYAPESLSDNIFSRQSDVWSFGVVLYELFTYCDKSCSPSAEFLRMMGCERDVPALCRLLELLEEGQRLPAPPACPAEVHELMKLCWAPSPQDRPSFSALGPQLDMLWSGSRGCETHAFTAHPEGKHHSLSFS

[8] = target: T3, Mitogen-activated protein kinase 12 (Homo sapiens) (UniProt P53778); assay: Inhibition of recombinant human full length His-tagged MAPK12 expressed in baculovirus expression system using serine/threonine-03 peptide as substrate at 10 uM incubated for 60 mins in presence of ATP by Z'-LYTE assay
T3 sequence (whole entry): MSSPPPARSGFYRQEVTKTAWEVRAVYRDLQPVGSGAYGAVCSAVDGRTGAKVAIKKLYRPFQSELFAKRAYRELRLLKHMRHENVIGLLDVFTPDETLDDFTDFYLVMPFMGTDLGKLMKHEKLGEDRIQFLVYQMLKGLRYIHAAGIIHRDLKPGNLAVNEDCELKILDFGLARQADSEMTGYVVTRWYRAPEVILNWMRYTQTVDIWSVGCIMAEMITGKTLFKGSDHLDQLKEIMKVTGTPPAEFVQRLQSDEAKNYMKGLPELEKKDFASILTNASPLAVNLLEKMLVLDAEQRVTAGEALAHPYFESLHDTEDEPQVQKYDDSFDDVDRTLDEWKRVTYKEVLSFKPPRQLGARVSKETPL

[9] = target: Dual specificity tyrosine-phosphorylation-regulated kinase 1B (Homo sapiens) (UniProt Q9Y463); assay: Inhibition of recombinant human full length GST-tagged DYRK1B expressed in baculovirus expression system using serine/threonine-18 peptide as substrate at 10 uM incubated for 60 mins in presence of ATP by Z'-LYTE assay
Dual specificity tyrosine-phosphorylation-regulated kinase 1B (Homo sapiens), sequence (Q9Y463 whole entry, looked up): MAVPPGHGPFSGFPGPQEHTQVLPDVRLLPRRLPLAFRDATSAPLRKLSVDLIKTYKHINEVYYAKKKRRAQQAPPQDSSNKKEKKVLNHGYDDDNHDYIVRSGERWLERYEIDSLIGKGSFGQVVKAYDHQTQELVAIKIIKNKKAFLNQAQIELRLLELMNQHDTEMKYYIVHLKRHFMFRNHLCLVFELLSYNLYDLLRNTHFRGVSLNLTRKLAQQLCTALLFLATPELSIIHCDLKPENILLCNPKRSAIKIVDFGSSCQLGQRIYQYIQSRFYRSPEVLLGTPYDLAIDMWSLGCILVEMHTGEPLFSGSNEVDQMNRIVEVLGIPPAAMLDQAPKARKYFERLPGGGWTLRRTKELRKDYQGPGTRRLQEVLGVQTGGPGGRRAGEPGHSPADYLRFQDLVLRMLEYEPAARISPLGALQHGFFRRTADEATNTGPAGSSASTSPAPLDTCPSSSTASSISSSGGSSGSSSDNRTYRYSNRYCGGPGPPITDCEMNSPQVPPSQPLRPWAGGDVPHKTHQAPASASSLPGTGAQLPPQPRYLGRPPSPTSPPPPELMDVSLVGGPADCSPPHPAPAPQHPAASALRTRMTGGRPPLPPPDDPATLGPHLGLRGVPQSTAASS

[10] = target: RAC-beta serine/threonine-protein kinase (Homo sapiens) (UniProt P31751); assay: Inhibition of recombinant full length human His-tagged AKT2 using serine/threonine-06 peptide as substrate at 10 uM incubated for 60 mins in presence of ATP by Z'-LYTE assay
RAC-beta serine/threonine-protein kinase (Homo sapiens), sequence (P31751 whole entry): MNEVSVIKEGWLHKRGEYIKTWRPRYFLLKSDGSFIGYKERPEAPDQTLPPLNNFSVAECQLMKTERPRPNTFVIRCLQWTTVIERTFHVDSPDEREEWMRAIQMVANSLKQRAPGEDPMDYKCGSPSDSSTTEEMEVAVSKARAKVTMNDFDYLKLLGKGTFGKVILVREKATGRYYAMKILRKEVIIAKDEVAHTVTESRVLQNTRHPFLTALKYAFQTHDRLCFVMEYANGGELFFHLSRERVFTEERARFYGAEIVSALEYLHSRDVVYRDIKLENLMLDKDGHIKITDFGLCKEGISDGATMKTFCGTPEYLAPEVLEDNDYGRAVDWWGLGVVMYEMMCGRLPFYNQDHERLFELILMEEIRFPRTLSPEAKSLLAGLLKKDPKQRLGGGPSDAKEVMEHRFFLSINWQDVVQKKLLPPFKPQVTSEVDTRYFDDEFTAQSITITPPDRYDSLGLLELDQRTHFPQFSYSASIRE

Measured: inhibition

Brc1ccccc1CSc1ncnc2[nH]cnc12
inactive: all assays above

Clc1cccc(CSc2ncnc3[nH]cnc23)c1
inactive: all assays above

c1ccc(CSc2ncnc3[nH]cnc23)cc1
inactive: all assays above
